Source: the NIST ThermoML archive (doi:10.1021/je049609w)

Tests used:
[1] = refractive index (Na D-line) (dimensionless); xn = mol fraction of the nth substance listed; settings: 101 kPa, Liquid
[2] = xn = mol fraction of the nth substance listed; settings: 101 kPa, Liquid

CC(=O)N(C)C [N,N-dimethylethanamide] + C1COCCO1
Settings | mass density, 298.15 K [kg/m3] | mass density, 303.15 K [kg/m3] | mass density, 308.15 K [kg/m3] | refractive index, 298.15 K | refractive index, 303.15 K | refractive index, 308.15 K | speed of sound, 298.15 K [m/s] | viscosity, 298.15 K [mPa·s] | viscosity, 303.15 K [mPa·s] | viscosity, 308.15 K [mPa·s]
[1], x2 = 0 | – | – | – | 1.4363 | 1.4342 | 1.432 | – | – | – | –
[1], x2 = 0.1121 | – | – | – | 1.4346 | 1.4324 | 1.4302 | – | – | – | –
[1], x2 = 0.2162 | – | – | – | 1.4328 | 1.4306 | 1.4284 | – | – | – | –
[1], x2 = 0.3203 | – | – | – | 1.431 | 1.4287 | 1.4264 | – | – | – | –
[1], x2 = 0.4222 | – | – | – | 1.4293 | 1.4269 | 1.4246 | – | – | – | –
[1], x2 = 0.5242 | – | – | – | 1.4275 | 1.4252 | 1.4228 | – | – | – | –
[1], x2 = 0.6219 | – | – | – | 1.4259 | 1.4234 | 1.421 | – | – | – | –
[1], x2 = 0.7198 | – | – | – | 1.4242 | 1.4226 | 1.4191 | – | – | – | –
[1], x2 = 0.8157 | – | – | – | 1.4226 | 1.421 | 1.4174 | – | – | – | –
[1], x2 = 0.9116 | – | – | – | 1.421 | 1.4195 | 1.4157 | – | – | – | –
[2], x2 = 0 | 946.8 | 942.1 | 937.5 | – | – | – | 1458 | 1.261 | 1.154 | 1.047
[2], x2 = 0.1121 | 954.8 | 950.1 | 945.4 | – | – | – | 1447 | 1.255 | 1.149 | 1.043
[2], x2 = 0.2162 | 962.4 | 957.6 | 952.9 | – | – | – | 1436 | 1.248 | 1.144 | 1.039
[2], x2 = 0.3203 | 970 | 965.2 | 960.3 | – | – | – | 1424 | 1.242 | 1.138 | 1.035
[2], x2 = 0.4222 | 977.9 | 972.9 | 968 | – | – | – | 1413 | 1.235 | 1.133 | 1.031
[2], x2 = 0.5242 | 985.9 | 980.9 | 975.9 | – | – | – | 1401 | 1.228 | 1.128 | 1.027
[2], x2 = 0.6219 | 993.9 | 988.8 | 983.6 | – | – | – | 1390 | 1.222 | 1.123 | 1.023
[2], x2 = 0.7198 | 1002.1 | 996.8 | 991.6 | – | – | – | 1379 | 1.215 | 1.117 | 1.019
[2], x2 = 0.8157 | 1010.5 | 1005.3 | 999.8 | – | – | – | 1367 | 1.209 | 1.105 | 1.016
[2], x2 = 0.9116 | 1019.2 | 1013.7 | 1008.2 | – | – | – | 1356 | 1.202 | 1.099 | 1.012
